Positions count from the first letter of the chain named. Read-outs that look alike come from different tables or passages of the source.
How the values were obtained:
CYP2C19 [1] = target: T1, CYP2C19 (Homo sapiens, UniProt P33261); conditions: fraction of substrate metabolized by the inhibited CYP pathway (CYP2C19); cited from earlier work
CYP2C9 [2] = target: T2, CYP2C9 (Homo sapiens, UniProt P11712); conditions: AUCI/AUC with multiple doses of efavirenz (steady state Cmax); CYP2C9 substrates
CYP2C9 [3] = target: T2, CYP2C9; conditions: fraction of substrate metabolized by the inhibited CYP pathway (CYP2C9); cited from earlier work
expressed CYP2B6 [4] = conditions: cited from earlier work
CYP2B6 [5] = target: T3, CYP2B6 (Homo sapiens, UniProt P20813); conditions: substrate bupropion
T3 sequence (P20813 1-491): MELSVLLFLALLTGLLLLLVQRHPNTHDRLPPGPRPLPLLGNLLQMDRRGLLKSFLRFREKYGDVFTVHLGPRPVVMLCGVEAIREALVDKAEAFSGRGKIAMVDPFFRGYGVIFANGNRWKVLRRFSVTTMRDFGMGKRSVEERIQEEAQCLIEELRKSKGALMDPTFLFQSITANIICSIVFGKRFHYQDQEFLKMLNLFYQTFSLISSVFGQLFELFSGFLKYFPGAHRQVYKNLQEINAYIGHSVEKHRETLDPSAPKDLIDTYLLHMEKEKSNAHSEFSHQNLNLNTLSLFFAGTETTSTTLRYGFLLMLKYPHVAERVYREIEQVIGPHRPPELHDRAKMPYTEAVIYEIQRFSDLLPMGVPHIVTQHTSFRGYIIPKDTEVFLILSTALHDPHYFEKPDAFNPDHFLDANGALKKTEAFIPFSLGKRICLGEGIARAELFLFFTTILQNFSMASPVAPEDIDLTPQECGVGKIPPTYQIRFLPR

CYP2C19 [6] = target: T1, CYP2C19; assay: Inhibition of CYP2C19; type: in vitro ADME
CYP2B6 [7] = conditions: cited from earlier work
expressed CYP2C8 = target: T4, expressed CYP2C8 (Homo sapiens, UniProt P10632); assay: Inhibition of expressed CYP2C8; type: in vitro ADME
T4 sequence (P10632 1-490): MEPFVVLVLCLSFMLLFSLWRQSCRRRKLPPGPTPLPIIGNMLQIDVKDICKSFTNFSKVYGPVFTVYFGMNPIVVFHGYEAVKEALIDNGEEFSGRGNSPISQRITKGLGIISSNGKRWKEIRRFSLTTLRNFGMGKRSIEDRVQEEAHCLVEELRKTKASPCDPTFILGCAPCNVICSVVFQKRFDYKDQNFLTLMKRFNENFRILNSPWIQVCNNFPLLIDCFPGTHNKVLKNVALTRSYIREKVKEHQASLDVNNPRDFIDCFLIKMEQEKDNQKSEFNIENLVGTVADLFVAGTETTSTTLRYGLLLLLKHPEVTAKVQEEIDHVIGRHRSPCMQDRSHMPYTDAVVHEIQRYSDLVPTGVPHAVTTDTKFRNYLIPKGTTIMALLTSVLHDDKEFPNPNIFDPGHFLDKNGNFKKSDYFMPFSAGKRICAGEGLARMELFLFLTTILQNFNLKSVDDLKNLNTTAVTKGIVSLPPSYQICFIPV

[8] = system: CYP isoforms (eight major CYPs except for CYP2B6); assay: Time-dependent inhibition of CYP isoforms in pooled HLMs; type: in vitro ADME, human; conditions: 50 μM efavirenz
CYP2C8 [9] = conditions: expressed CYPs; cited from earlier work
CYP2C9 [10] = target: T2, CYP2C9; assay: Inhibition of CYP2C9; type: in vitro ADME
[11] = Efavirenz plasma pharmacokinetics; type: in vivo; conditions: human, po, 600 mg
CYP2A6 = target: T5, CYP2A6 (Homo sapiens, UniProt P11509); assay: Inhibition of CYP2A6; type: in vitro ADME; conditions: pooled human liver microsomes, pH 7.4, probe coumarin (7-hydroxylation)
T5 sequence (P11509 1-494): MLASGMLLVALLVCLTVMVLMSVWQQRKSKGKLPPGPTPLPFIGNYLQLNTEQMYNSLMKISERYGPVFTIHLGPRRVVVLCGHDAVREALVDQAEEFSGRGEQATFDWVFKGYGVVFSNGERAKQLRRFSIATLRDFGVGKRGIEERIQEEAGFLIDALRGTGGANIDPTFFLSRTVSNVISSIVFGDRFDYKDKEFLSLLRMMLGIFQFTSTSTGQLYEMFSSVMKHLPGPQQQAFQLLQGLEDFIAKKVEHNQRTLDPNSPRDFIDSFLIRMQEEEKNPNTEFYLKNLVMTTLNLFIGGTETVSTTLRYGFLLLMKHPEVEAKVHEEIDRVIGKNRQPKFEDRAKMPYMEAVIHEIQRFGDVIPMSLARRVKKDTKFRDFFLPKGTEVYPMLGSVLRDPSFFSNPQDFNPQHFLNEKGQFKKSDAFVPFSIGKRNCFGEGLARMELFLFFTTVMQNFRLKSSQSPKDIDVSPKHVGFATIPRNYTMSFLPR

UGT2B7 = conditions: in vitro; cited from earlier work
[12] = cited from earlier work
CYP2C9 [13] = target: T2, CYP2C9; conditions: in vitro study; cited from earlier work
CYP3A = CYP3A (Homo sapiens, UniProt P08684); assay: Inhibition of CYP3A; type: in vitro ADME; conditions: pooled human liver microsomes, pH 7.4, probe testosterone (6-β hydroxylation), 10 μM, inhibition of CYP3A activity, 50 μM efavirenz, pooled HLMs, 10 μM testosterone
CYP1A2 = CYP1A2 (Homo sapiens, UniProt P05177); assay: Inhibition of CYP1A2; conditions: 50 μM phenacetin
expressed CYP2B6 [14] = target: T6, expressed CYP2B6 (Homo sapiens, UniProt P20813); assay: Inhibition of expressed CYP2B6; type: in vitro ADME; conditions: substrate bupropion
T6 sequence (P20813 1-491): T3 sequence (P20813 1-491)

CYP2C8 [15] = target: T7, CYP2C8 (Homo sapiens, UniProt P10632); assay: in vitro; conditions: microsomes, pH 7.4
T7 sequence (P10632 1-490): T4 sequence (P10632 1-490)

CYP2D6 = CYP2D6 (Homo sapiens, UniProt P10635); assay: Inhibition of CYP2D6; type: in vitro ADME; conditions: pooled human liver microsomes, pH 7.4, probe dextromethorphan (O-demethylation)
CYP2C8 [16] = target: T7, CYP2C8; assay: Inhibition of CYP2C8; conditions: pooled HLMs; substrate amodiaquine
CYP2C8 [17] = target: T8, CYP2C8 (Homo sapiens, UniProt P10632, K399R/R139K); assay: Inhibition of CYP2C8
T8 sequence (P10632 1-490 R139K/K399R): T4 sequence (P10632 1-490) with R139K, K399R

T2 sequence (P11712 whole entry): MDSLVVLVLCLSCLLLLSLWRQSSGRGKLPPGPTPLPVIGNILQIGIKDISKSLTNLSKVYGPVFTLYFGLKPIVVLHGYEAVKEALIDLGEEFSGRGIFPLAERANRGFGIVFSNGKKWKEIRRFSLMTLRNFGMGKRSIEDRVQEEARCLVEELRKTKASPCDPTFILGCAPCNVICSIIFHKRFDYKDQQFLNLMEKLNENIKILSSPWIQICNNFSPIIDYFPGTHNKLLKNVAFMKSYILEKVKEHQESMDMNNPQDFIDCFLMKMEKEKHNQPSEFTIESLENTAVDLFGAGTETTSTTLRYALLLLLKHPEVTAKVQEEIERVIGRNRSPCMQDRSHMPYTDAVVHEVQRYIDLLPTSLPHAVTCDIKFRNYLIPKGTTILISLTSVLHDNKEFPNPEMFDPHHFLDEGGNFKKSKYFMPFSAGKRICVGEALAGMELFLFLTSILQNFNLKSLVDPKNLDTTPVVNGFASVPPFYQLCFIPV
T1 sequence (P33261 whole entry): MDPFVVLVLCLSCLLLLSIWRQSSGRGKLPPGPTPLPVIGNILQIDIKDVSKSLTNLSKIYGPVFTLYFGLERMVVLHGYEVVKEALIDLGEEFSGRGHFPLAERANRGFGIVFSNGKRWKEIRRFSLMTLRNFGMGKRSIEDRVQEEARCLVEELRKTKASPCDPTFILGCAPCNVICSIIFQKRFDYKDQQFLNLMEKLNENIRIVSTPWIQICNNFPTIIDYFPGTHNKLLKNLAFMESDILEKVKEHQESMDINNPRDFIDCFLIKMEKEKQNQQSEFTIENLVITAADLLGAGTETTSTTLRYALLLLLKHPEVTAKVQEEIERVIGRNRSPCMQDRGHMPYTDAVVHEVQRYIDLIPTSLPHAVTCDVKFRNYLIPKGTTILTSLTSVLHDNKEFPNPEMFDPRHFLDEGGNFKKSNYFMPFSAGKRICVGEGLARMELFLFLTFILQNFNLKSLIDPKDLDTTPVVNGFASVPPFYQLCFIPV
CYP1A2, sequence (P05177 whole entry): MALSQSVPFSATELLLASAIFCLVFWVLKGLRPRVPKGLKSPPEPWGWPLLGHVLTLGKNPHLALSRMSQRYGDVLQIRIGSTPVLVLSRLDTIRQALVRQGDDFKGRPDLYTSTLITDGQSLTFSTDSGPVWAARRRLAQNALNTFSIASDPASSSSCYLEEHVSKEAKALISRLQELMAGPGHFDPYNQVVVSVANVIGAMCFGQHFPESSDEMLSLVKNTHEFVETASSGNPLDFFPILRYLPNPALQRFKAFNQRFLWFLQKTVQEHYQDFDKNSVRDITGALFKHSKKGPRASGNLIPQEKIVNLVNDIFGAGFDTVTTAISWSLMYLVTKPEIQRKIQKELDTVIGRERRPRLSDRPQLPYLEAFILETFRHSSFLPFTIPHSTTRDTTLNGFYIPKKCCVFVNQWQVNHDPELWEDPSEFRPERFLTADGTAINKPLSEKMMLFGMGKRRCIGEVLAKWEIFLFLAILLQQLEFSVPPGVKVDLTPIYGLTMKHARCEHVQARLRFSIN
CYP2D6, sequence (P10635 whole entry): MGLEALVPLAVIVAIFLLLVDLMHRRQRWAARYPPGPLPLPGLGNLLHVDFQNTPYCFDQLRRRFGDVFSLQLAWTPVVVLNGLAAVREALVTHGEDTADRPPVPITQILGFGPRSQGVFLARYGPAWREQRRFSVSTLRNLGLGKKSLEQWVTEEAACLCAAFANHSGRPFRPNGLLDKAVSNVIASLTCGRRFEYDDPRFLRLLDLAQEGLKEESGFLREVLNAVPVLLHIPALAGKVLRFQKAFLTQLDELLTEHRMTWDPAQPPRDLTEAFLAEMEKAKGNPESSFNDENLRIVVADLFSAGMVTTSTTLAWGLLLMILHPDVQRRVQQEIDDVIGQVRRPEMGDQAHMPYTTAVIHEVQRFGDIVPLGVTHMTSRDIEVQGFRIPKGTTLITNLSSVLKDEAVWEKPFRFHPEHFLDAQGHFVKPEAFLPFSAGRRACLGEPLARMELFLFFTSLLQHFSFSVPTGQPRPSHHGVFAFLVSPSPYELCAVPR
CYP3A, sequence (P08684 2-503): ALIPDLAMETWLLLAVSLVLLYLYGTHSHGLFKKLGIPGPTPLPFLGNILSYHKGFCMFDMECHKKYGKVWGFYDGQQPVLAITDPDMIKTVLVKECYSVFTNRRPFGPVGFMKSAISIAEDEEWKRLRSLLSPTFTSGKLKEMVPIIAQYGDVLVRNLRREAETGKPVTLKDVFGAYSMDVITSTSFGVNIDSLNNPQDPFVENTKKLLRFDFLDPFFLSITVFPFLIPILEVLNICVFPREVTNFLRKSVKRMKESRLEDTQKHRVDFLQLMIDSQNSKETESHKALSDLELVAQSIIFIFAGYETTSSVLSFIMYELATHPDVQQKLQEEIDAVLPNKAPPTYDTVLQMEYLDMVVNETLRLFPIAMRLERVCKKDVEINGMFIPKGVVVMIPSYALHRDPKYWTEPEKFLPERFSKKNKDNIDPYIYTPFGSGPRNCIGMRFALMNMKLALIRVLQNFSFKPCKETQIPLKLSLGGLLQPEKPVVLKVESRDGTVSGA

Structure (SMILES): COc1ccc2[nH]c([S+]([O-])Cc3ncc(C)c(OC)c3C)nc2c1 (stereo not shown) [Omeprazole]
- fm (CYP2C19 [1]): 0.87 [26])

Structure (SMILES): O=C1NC(=O)C(c2ccccc2)(c2ccccc2)N1 [Phenytoin]
- Predicted AUC Ratio (CYP2C9 [2]): 1.7 -2.0
- fm (CYP2C9 [3]): 0.90 [57])

Structure (SMILES): O=C1Nc2ccc(Cl)cc2[C@@](C#CC2CC2)(C(F)(F)F)O1 [efavirenz, Efavirenz]
- KI value (time-dependent inhibition) (expressed CYP2B6 [4]): 30 µM
- inhibition model (CYP2B6 [5]; CMV negative HLMs): competitive
- inhibition model (CYP2B6 [5]; pooled HLMs): competitive
- Ki (CYP2C19 [6]): 21.3 ± 2.57 µM
- inhibition model (CYP2C19 [6]; pooled HLMs, substrate S-mephenytoin): competitive
- Km (CYP2B6 [7]): 13 to 20 µM
- Ki (expressed CYP2C8): 6.05 ± 2.86 µM
- inhibition model (expressed CYP2C8; expressed CYP2C8, substrate amodiaquine): competitive
- time-dependent inhibition of CYP activity ([8]; preincubation for 30 min): only marginally inhibited
- time-dependent inactivation ([8]; shorter preincubation times (5-15 min)): did not show any indication of time-dependent inactivation
- IC50 (CYP2C8 [9]): 4 µM
- Ki (CYP2C9 [10]): 19.5 ± 2.78 µM
- inhibition model (CYP2C9 [10]; pooled HLMs, substrate tolbutamide): non-competitive
- Cmax [11]: 4.6 to 8.4 µM
- inhibition at 10 μM (CYP2A6): < 10%
- inhibition at 50 μM (CYP2A6; 10 μM): < 10%
- inhibition of UGT2B7 (UGT2B7): moderate inhibitor
- Ka absorption rate constant [12]: 0.3 h⁻¹
- IC50 (CYP2C9 [13]): ~15 µM
- inhibition at 50 μM (CYP3A): > 20%
- inhibition of CYP1A2 activity (CYP1A2; efavirenz 10 and 50 μM, pooled HLMs): did not indicate that efavirenz inhibits CYP1A2 activity
- inhibition model (expressed CYP2B6 [14]): competitive
- Ki (CYP2C8 [15]): 4.78 ± 2.24 µM
- inhibition at 10 μM (CYP2D6): < 10%
- inhibition at 50 μM (CYP2D6; 10 μM): < 10%
- inhibition model (CYP2C8 [16]): competitive
- Ki (CYP2C8 [17]): 4.8 ± 0.35 µM
- inhibition model (CYP2C8 [17]; HLMs with CYP2C8*3/*3, substrate amodiaquine): competitive

Structure (SMILES): CC(=O)C[C@@H](c1ccccc1)c1c(O)c2ccccc2oc1=O [S-Warfarin]
- Predicted AUC Ratio (CYP2C9 [2]): 1.7 -2.0

Structure (SMILES): CC(NC(C)(C)C)C(=O)c1cccc(Cl)c1 (stereo not shown) [bupropion]
- Km (CYP2B6 [7]; bupropion as CYP2B6 substrate): 90 to 130 µM

Structure (SMILES): O=C1Nc2c(O)cc(Cl)cc2[C@@](C#CC2CC2)(C(F)(F)F)O1 [8-hydroxyefavirenz]
- inhibition of CYP1A2 (CYP1A2; 8-hydroxyefavirenz up to 10 μM (0.5 to 10 μM), pooled HLMs 1 mg/ml, 30 min): ~ 20%

Source: PMC4075192 (Drug metabolism and pharmacokinetics, 2013)
